Earlier results in patent publication US20110293528A1, “ENEMA PREPARATIONS AND THEIR USE” (PHOTOCURE ASA, priority 2008, published 2011).

What was measured:
[1] = tested on: pre-malignant conditions in the colon (polyps); settings: enemas of 200 mg HAL in 500 ml or 1000 ml phosphate buffered saline (1.6 and 0.8 mmol per litre)
[2] = tested on: rectal adenoma or rectal cancer; settings: 3.2 mmol per litre HAL, instillation time 30-45 minutes, rest time 30 minutes

For CCCCCCOC(=O)CCC(=O)CN [5-aminolevulinic acid hexyl ester], the “more polyps detected by PDD than when using white light endoscopic imaging” value [1] is listed as 28% and the “result of photodynamic detection” value [2] is listed as “satisfactory results”.
